Entries after “also recorded” stand apart in the source; their conditions may differ. Read-outs that look alike come from different tables or passages of the source. Square brackets hold non-standard residues; d marks the D form. Ends that are not written are not given here. Peptide text beside a SMILES is read from it.
What was measured:
[1] = system: embolic MCA occlusion model; test: Embolic MCA occlusion model (eMCAo); format: in vivo
[2] = Pharmacokinetic analysis in rats by route (subcutaneous, pulmonary instillation, intramuscular, intravenous); conditions: rat
Description: (§1) Rats were anaesthetized in the supine position (Isoflurane 1.5-%) and allowed to breath spontaneously in 0.5 L/min 02. The left femoral artery was cannulated for blood sampling.
(§2) Test agents were prepared at the stablish concentration in a total volume of vehicle. Pulmonary instillation was performed by intubation with a 14G catheter connected to a 1 cc syringe and the test agent will be delivered through the catheter. Subcutaneous (SQ or SC) injection was injected into the area of the left flank, no more than 2 ml of total volume per site.
(§3) Each dose was evaluated in 3 rats for each administration strategy. […] For the first experiment, evaluating two different administration routes (SQ and PI), blood samples were collected at 8 different timepoints: Pre and at 7 additional times (1, 2.5, 5, 10, 15, 30, 60 min) post dose (250 ul/sample). For the 24-hour PK curve experiment, blood samples were collected at 11 timepoints: Pre, 2.5, 5, 10, 15, 30, 60 min, 3 hr, 6 hr, 12 hr and 24 hr.
(§4) HPLC quantification: Plasma was separated from blood and stored at −80° C. until used. Each sample was precipitated by adding 1M HCl (10 ul/100 ul sample) at >80° C., centrifuged (12,000 rpm×15 min) and the precipitate collected. A 5 cm C—18 RP-HPLC column was equilibrated with 10% acetonitrile with 0.1% TFA at 40° C., the sample was injected and run in an Agilent 1260 Infinity Quaternary LC System. (30 min at 1.5 mL/min; gradient from 10% to 35% acetonitrile in 0.1% TFA; Absorbance detected at 220 nm). Standard curves for HPLC were generated from plasma samples spiked with known quantities of test agent.

[3] = system: TNK-tissue plasminogen activator; test: Degradation in rat plasma with TNK-tissue plasminogen activator; conditions: given simultaneously with TNK
Source text: (§5) The experiment was repeated using TNK-tissue plasminogen activator in place of tPA.

[4] = Plasma concentrations 15 minutes after subcutaneous dose in rats of the 3-pial vessel occlusion study; format: in vivo; conditions: rat, single subcutaneous administration 25, 7.6, 2.5 mg/kg
Description: Unlike transient models of stroke in rats where much lower doses are required for neuroprotection, neuroprotection in 3 pial vessel occlusion models of stroke seems to require plasma concentrations of nerinetide at or above 2 ug/mL (or molar equivalent). […] Although the plasma levels continue to increase through about 3 hours then decrease, it is important to achieve rapid accumulation in the blood and brain for emergency indications like stroke. […] For pharmacokinetic sample analysis, calibration standard samples at concentrations of 0, 2.5, 5, 10, 15, 20 and 40 ug/mL of nerinetide were prepared by spiking 1 μL of the appropriate stock to 100 μL of plasma. […] Data is presented as mean±SD.

NMDAR2B:PSD-95 complexes = biological target: T1, NMDAR2B:PSD-95 complexes (Rattus norvegicus, UniProt P31016); test: Dissociation of NMDAR2B:PSD-95 complexes in three pial vessel model (3PVo), immunoprecipitation and Western blotting; format: in vivo, Sprague-Dawley rats; conditions: 7.6 mg/kg 1 hr after stroke onset, brains harvested 2 h after onset, rat 3PVo
T1 construct: Cortical stroke areas were collected for analysis; from tissue; host or cells: rat brain, cortical stroke area, after in vivo dosing
T1 sequence (P31016 whole entry, one chain of several): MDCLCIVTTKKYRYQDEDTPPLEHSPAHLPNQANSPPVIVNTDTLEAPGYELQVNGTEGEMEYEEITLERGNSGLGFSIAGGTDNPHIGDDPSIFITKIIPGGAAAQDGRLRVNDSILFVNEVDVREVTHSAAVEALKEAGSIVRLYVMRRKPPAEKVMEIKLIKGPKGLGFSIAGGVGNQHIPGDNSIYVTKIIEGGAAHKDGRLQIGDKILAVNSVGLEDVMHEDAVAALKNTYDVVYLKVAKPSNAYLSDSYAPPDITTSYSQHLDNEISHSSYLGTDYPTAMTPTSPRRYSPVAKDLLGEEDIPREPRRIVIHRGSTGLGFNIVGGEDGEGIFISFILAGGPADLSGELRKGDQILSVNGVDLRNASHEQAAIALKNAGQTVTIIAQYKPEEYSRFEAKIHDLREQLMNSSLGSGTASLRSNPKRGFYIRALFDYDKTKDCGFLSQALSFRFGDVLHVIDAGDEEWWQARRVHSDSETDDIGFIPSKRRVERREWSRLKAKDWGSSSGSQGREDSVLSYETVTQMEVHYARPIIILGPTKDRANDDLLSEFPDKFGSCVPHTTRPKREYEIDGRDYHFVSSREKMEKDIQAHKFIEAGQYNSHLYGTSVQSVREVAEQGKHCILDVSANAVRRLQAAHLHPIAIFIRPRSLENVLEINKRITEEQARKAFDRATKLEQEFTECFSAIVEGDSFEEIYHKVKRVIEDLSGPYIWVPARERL
Description: Sprague-Dawley rats were subject to three pial vessel model (3PVo). […] Brains were harvested 2 h after stroke onsets. Cortical stroke areas were collected for analysis. Immunoprecipitations were performed with anti-PSD-95 or anti-NMDAR2B. The amount of PSD-95 and NMDAR2B in samples was analyzed by Western blotting. Reduction in PSD-95-NMDAR2B complex formation was assessed by fold decrease of placebo versus treatment.

PSD95PDZ2 = PSD95PDZ2 (Homo sapiens, UniProt P78352); test: Competitive ELISA with biotinylated-NA-1 on coated PSD95PDZ2; format: binding; conditions: for EC50 compared among NA-1, D-Tat-L-2B9C and D-NA-1: FIG. 12
Sequence of PSD95PDZ2 (P78352 160-246 limits assumed): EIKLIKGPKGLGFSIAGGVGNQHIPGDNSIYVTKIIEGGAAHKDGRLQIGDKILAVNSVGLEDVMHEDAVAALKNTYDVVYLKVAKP
Description: Binding was evaluated with a competitive ELISA assay. A plate was coated with 1 ug/ml PSD95PDZ2 in 50 mM bicarbonate buffer overnight at 4C. The plate was blocked in 2% BSA in PBST (0.05%) for 2 h at room temperature. […] The wells were washed again, and then incubated with TMB solution for 10 min. The reaction was stopped with 100 ul H2SO4. Absorbance was determined at 450 nm with the synergy H1 reader.

plasmin [5] = biological target: T2, plasmin (Homo sapiens, UniProt P00747); format: in vitro ADME
T2 construct: NA-1 was digested with plasmin
T2 sequence (P00747 581-810 limits assumed, species assumed): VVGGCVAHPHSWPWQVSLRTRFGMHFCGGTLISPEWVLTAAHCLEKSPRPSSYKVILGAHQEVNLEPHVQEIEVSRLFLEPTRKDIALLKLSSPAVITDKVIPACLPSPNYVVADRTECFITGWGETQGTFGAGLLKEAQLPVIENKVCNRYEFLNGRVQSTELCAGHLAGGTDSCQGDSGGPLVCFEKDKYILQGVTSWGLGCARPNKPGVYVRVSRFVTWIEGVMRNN
T2 sequence (P00747 97-580 limits assumed, species assumed): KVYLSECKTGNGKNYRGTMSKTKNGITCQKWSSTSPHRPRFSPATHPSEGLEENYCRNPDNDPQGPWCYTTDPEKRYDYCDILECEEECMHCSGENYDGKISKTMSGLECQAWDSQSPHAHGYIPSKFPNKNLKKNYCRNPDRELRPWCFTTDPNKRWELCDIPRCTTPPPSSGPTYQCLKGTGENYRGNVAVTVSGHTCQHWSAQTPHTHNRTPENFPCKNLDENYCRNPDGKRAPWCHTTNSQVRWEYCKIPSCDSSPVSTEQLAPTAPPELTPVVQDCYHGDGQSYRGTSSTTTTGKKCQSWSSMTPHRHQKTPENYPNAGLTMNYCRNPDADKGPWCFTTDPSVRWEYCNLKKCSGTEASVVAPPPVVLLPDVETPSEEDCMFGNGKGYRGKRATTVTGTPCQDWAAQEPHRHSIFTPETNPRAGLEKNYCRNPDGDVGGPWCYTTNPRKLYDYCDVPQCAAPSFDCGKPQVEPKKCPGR

[6] = system: TNK-tissue plasminogen activator; test: Degradation in human plasma with TNK-tissue plasminogen activator; conditions: given simultaneously with TNK
Source text: as §5

[7] = system: 3-pial vessel occlusion model of stroke; conditions: for infarct volume: versus placebo
Description: Treatments were administered subcutaneously as a bolus injection, 60 minutes after the onset of stroke. […] Data is presented as mean±SD, N=10/group. The asterisk (*) represents statistical significance when compared to Placebo (ANOVA, with a Tukey's post-hoc analysis, *P<0.0332, **P<0.0021, ***P<0.0002 and ****P<0.0001).

[8] = 2.6 mg/kg dose; cited from earlier work
rt-PA [9] = test: Degradation in rat plasma in vitro with rt-PA
[10] = NA-1 plasma levels after administering NA-1 and tPA to rats; set-up: species or system rat; conditions: rats in vivo, rt-PA 5.4 mg/kg, versus NA-1 alone
plasmin [11] = biological target: T2, plasmin; format: in vitro ADME; remark: listed apart in the source
Source text: Plasmin is a serum protease induced by thrombolytic agents, such as tPA. Plasmin cleavage sites can occur on the C-terminal side of basic amino acids residues in a peptide formed of L-amino acids. NA-1 was digested with plasmin and the products analyzed by mass spectrometry. […] However, cleavage at the other two sites may occur to a lesser extent.

rt-PA [12] = test: Degradation in human plasma in vitro with rt-PA; conditions: given simultaneously with rt-PA (tPA)
tPA = tPA (Homo sapiens, UniProt P00750)
Sequence of tPA (P00750 36-562): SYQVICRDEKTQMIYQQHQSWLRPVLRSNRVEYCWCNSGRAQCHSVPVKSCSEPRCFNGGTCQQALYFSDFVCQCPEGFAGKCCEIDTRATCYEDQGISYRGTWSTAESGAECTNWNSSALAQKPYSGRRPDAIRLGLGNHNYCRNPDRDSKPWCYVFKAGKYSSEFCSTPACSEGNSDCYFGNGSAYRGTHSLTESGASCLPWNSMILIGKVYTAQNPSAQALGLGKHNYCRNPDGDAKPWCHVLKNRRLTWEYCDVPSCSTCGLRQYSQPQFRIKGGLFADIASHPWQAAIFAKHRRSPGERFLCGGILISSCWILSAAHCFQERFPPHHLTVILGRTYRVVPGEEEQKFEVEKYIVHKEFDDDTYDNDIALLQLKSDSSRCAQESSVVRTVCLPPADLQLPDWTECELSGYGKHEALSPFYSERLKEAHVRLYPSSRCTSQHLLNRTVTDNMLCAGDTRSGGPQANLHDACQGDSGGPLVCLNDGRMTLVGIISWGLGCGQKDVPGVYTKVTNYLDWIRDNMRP

rt-PA [13] = system: rt-PA
histamine = conditions: rat, in vivo, iv, 7.6 mg/kg
Description: Blood samples were collected at 11 timepoints: Pre, 2.5, 5, 10, 15, 30, 60 min, 3 hr, 6 hr, 12 hr and 24 hr. Histamine levels were quantified by using commercially available histamine ELISA assay kit (Histamine ELISA-H1531-K01, Eagle Bioscience). The plates were coated with the plasma samples (50 ul/well) incubated for 60 minutes at room temperature on an orbital shaker with medium frequency. Then 100 ul of enzyme conjugate was added to the wells and incubated for 20 minutes at room temperature. Samples were washed again, and then incubated for 25 minutes at room temperature with TMB solution. The reaction was stopped with 100 ul H2SO4. Absorbance was determined on an ELISA plate reader at 450 nm.
Blood samples were taken at pre-injection and at 0, 1, 2.5, 5, 10, 15, 30- and 60-minutes post dose and used for histamine levels quantification using commercially available kit.

[14] = rat, in vivo, 25 mg/kg
Description: as §1, §2, §3, §4

[15] = without tPA, 7.6 mg/kg IV bolus 1 hour after stroke onset
[16] = intramuscular versus intravenous

YGRKKRRQRRRKLSSIESDV [NA-1]
infarction volume ([1]; tPA co-administered (rt-PA 5.4 mg/kg), 7.6 mg/kg IV 1 hour after stroke onset): reducing its effect | infarction volume [1, 15]: significantly reduced infarction volume and right hemisphere swelling | right hemisphere swelling [1, 15]: significantly reduced infarction volume and right hemisphere swelling | AUC, intramuscular [2, 16]: somewhat higher AUC | Cmax, intramuscular [2, 16]: lower CMax | half-life, intramuscular [2, 16]: higher half-life | half-life, subcutaneous ([2]; subcutaneous versus same dose intravenous NA-1): longer half-life | Cmax, subcutaneous ([2]; subcutaneous, 25 mg/kg (Table 4), NA-1 versus IV NA-1, others versus subcutaneous NA-1): much lower CMax | AUC / plasma exposure, subcutaneous ([2]; subcutaneous, 25 mg/kg (Table 4), NA-1 versus IV NA-1, others versus subcutaneous NA-1, 25 mg/kg): somewhat lower AUC | peptide content / degradation in rat plasma with TNK [3]: rapid degradation; also recorded: reduced | dose proportionality between treatment dose and Cmax [4]: dose proportionality | dissociation of preformed NMDAR2B:PSD-95 complexes (NMDAR2B:PSD-95 complexes): able to dissociate preformed NMDAR2B:PSD-95 complexes | EC50 compared among NA-1, D-Tat-L-2B9C and D-NA-1 (PSD95PDZ2): about the same within experimental error | binding to PSD-95 PDZ2 domain (PSD95PDZ2; competitive ELISA): high binding affinity | degradation by plasmin in PBS (plasmin [5]): rapidly degraded | peptide content / degradation in human plasma with TNK [6]: rapid degradation; also recorded: reduced | infarct volume ([7]; 7.6 mg/kg subcutaneous bolus 60 minutes after onset of stroke): failed to achieved infarct volume reduction | infarct volume ([7]; 25 mg/kg subcutaneous bolus 60 minutes after onset of stroke): significant reduction in infarct volume | plasma concentration required for neuroprotection ([7]; rat, in vivo): ≥ 2000 ng/mL | effective plasma concentration in human studies [8]: ~10 µg/mL | peptide content / degradation in rat plasma with rt-PA (rt-PA [9]; given simultaneously with rt-PA (tPA)): decayed much more rapidly when tPA was co-administered; also recorded: significantly reduced | time to decay to zero with tPA (rt-PA [9]; treated with tPA): ≤ 15 min | AUC when administered simultaneously with rt-PA [10]: significantly reduced | Cmax when administered simultaneously with rt-PA [10]: significantly reduced | plasmin cleavage sites (plasmin [11]): cleavage at seven of nine potential sites | peptide content / degradation in human plasma with rt-PA (rt-PA [12]): decayed much more rapidly when tPA was co-administered; also recorded: significantly reduced

CC[C@H](C)[C@H](NC(=O)[C@H](CO)NC(=O)[C@H](CO)NC(=O)[C@H](CC(C)C)NC(=O)[C@H](CCCCN)NC(=O)[C@@H](CCCNC(=N)N)NC(=O)[C@@H](CCCNC(=N)N)NC(=O)[C@@H](CCCNC(=N)N)NC(=O)[C@@H](CCC(N)=O)NC(=O)[C@@H](CCCNC(=N)N)NC(=O)[C@@H](CCCNC(=N)N)NC(=O)[C@@H](CCCCN)NC(=O)[C@@H](CCCCN)NC(=O)[C@@H](CCCNC(=N)N)NC(=O)CNC(=O)[C@H](N)Cc1ccc(O)cc1)C(=O)N[C@@H](CCC(=O)O)C(=O)N[C@@H](CO)C(=O)N[C@@H](CC(=O)O)C(=O)N[C@H](C(=O)O)C(C)C [D-TAT-L-2B9c] (H-[dY]G[dR][dK][dK][dR][dR][dQ][dR][dR][dR]KLSSIESDV-OH; N-terminus and C-terminus assumed)
degradation by tPA or TNK in PBS without plasma (tPA): no degradation | peptide content / degradation in human plasma with rt-PA (rt-PA [13]): resistant to proteolysis | histamine release (histamine): did result in significant histamine release | IC50 (PSD95PDZ2): < 5 µM | EC50 compared among NA-1, D-Tat-L-2B9C and D-NA-1 (PSD95PDZ2): about the same within experimental error | degradation by plasmin in PBS (plasmin [5]): resistant to plasmin cleavage | AUC / plasma exposure, subcutaneous [14]: also increased Cmax and AUC relative to subcutaneous NA-1 but not to the same extent | Cmax, subcutaneous [14]: also increased Cmax and AUC relative to subcutaneous NA-1 but not to the same extent

From US20230055441A1 (NONO INC., priority 2020, published 2023)
